Reference: patent US20210244790A1 (priority 2018, published 2021)
Values after ≈ are worked out from the molar mass of the structure shown. Read-outs that look alike come from different tables or passages of the source. Numbered stars: 1 amine (or outer) side, 2 acyl side, 3 side chain; on linkers, the order of the positions; unused ones are H or OH. Bridge positions count the residues as written; N and C are the ends. Square brackets hold non-standard residues; d marks the D form. Peptide text beside a SMILES is read from it. ξ: configuration not given here. ξAsn(3ξ-OH) = NC(=O)C(O)C(N)C(=O)O; X1 = CC(C)CCCC(CC(=O)[*:1])O[*:2]; NMeF = CN[CH](Cc1ccccc1)C(=O)O; NMeV = CN[CH](C(=O)O)C(C)C; Orn = NCCC[CH](N)C(=O)O

Columns and labels:
[1] = tested on: methicillin-resistant Staphylococcus aureus (MRSA) on the skin; experiment: Efficacy evaluation test by single dose topical application in murine MRSA skin infection model; assay type: in vivo, mice; details: preliminary test
MRSA [2] = experiment: microbe, parasite or virus in culture; details: Staphylococcus aureus, read-out: MIC in the presence of 5% FBS, Anti-MRSA activity of 3rd generation
Propionibacterium acnes [3] = experiment: microbe, parasite or virus in culture; details: Cutibacterium acnes, read-out: antibacterial activity (MIC) of boric acid alone
MRSA [4] = details: CAMHB with 5% FBS
[5] = tested on: clinically isolated MRSA strain; experiment: microbe, parasite or virus in culture; details: Staphylococcus aureus, read-out: anti-MRSA activity (MIC) of boric acid alone
MRSA [6] = experiment: Additional cross MIC test using 5% FBS-added CAMHB, with FIC index; details: concentration of each component in the combination
[7] = tested on: MRSA Used in Animal Model; experiment: microbe, parasite or virus in culture; details: Staphylococcus aureus
MRSA [8] = tested on: MRSA
Propionibacterium acnes [9] = experiment: Number of cells after 48 hour anaerobic incubation in 5% FBS-supplemented GAM medium; assay type: cell-based; details: lotilibcin 0.1 μg/mL alone, initial 2.8 × 10^6
[10] = read-out: Minimum Inhibitory Concentration Against MRSA Used in Animal Model (MIC), CAMHB, no 5% FBS
[11] = read-out: Minimum Inhibitory Concentration Against MRSA Used in Animal Model (MIC), CAMHB, with 5% FBS

| SMILES | change in the number of cells (CFUs in skin tissue) ([1]; 1% boric acid alone, single topical dose) | antibacterial efficacy in animal infection models ([1]; boric acid alone 0.1% to 1%) | MIC (MRSA [2]) [µg/mL] | MIC (Propionibacterium acnes [3]) [µg/mL] | minimum concentration of boric acid necessary for enhancing the anti-MRSA activity of lotilibcin (MRSA [4]) [µg/mL] | MIC [5] [µg/mL] | point of synergy (concentration) in table 7 (MRSA [6]) [µg/mL] | MIC [7, 10] [µg/mL] | MIC [7, 11] [µg/mL] | MIC ([7]; read-out: concentration exhibiting antibacterial activity (MIC), used solely, not influenced by presence or absence of serum component (FBS)) [µg/mL] | antibacterial efficacy (change in number of CFUs in skin tissue) ([1]; 0.5% lotilibcin alone, single topical dose) | antibacterial efficacy (change in number of CFUs in skin tissue) ([1]; lotilibcin alone 0.02%, 0.2%, 0.5%, single topical dose, 24 hours) | Antibacterial activity of lotilibcin (MIC) (Bacillus anthracis; No serum) [µg/mL] | Antibacterial activity of lotilibcin (MIC) (Bacillus anthracis; With serum (5% FBS)) [µg/mL] | MIC in the presence of 5% FBS, Anti-MRSA activity of 1st generation (MRSA [8]; 1st generation bacteria) [µg/mL] | MIC in the presence of 5% FBS, Anti-MRSA activity of 3rd generation (MRSA [8]; 3rd generation bacteria, test substance alone) [µg/mL] | Number of cells After 48 hours (Propionibacterium acnes [9]) |
| --- | --- | --- | --- | --- | --- | --- | --- | --- | --- | --- | --- | --- | --- | --- | --- | --- | --- |
| OB(O)O [Boric acid] | on the same level as or worse than the result of the negative control | no antibacterial efficacy | 5000 | 1250 (≈ 20.2 mM) | 100 | 2500 (≈ 40.4 mM) | 313 | 2500 (≈ 40.4 mM) | 2500 (≈ 40.4 mM) | 2500 (≈ 40.4 mM) | – | – | – | – | – | – | – |
| CC(C)CCCC1CC(=O)NC(CO)C(=O)NC(C(O)C(N)=O)C(=O)NC(CO)C(=O)NCC(=O)N(C)C(Cc2ccccc2)C(=O)NC(CC(C)C)C(=O)NC(CCCN)C(=O)NC(CCC(=O)O)C(=O)NC(CC(N)=O)C(=O)NC(Cc2c[nH]c3ccccc23)C(=O)NC(CCCN)C(=O)N(C)C(C(C)C)C(=O)O1 (centres unmarked) [Lotilibcin, lotilibcin] (S[ξAsn(3ξ-OH)]SG[NMeF]L[Orn]ENW[Orn][NMeV]; linker N-C via X1; configuration not given here) | – | – | – | – | – | – | 0.03 | – | – | – | comparable to that of 2% mupirocin | dose-dependent efficacy | 1.0 | 0.1 | 0.25 | 32 | 1.3 × 10^6 CFU/mL |
| C/C(=C\C(=O)OCCCCCCCCC(=O)O)C[C@@H]1OC[C@H](C[C@@H]2O[C@H]2[C@@H](C)[C@H](C)O)[C@@H](O)[C@H]1O [Mupirocin, mupirocin] | – | – | – | – | – | – | – | 0.125 (≈ 0.00025 mM) | 0.5 (≈ 0.000999 mM) | – | – | – | – | – | – | – | – |
